Reference: the supplement of paper PMC5412046
Where a name gives a salt, the structure may show the parent alone.

Test system: SB.msgc-1
Test: AC50 for growth inhibition (viability) (log10 M); higher = less potent
Conditions: SB.msgc-1 (sporadic gastric cancer)
Summary of the method: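 Dosing used a pintool to add 23 nL compound in DMSO to 1536 wells, each with 500 hereditary or sporadic patient-derived gastric cancer cells, across 11 threefold dilutions starting at a final 46 μM. Viability after 48 h was measured by CellTiter-Glo luminescence on a ViewLux. The log half-maximal activity concentration derives from a four-parameter fit of that viability normalised to DMSO, limited to high-quality curve classes.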

Row | Structure (SMILES) | AC50 for growth inhibition (log10 M)
1 | Cc1cccc(C)c1OCC(=O)N[C@@H](Cc1ccccc1)[C@@H](O)C[C@H](Cc1ccccc1)NC(=O)[C@H](C(C)C)N1CCCNC1=O [Lopinavir] | -4.73
2 | Clc3cc4CCc1cccnc1C(=C2/CCN(CC2)C(=O)OCC)\c4cc3 [Loratadine] | -4.73
3 | CC[C@H](C)C(=O)O[C@H]1C[C@@H](C)\C=C2\C=C/[C@H](C)[C@H](CC[C@@H]3C[C@@H](O)CC(=O)O3)[C@@H]12 [Lovastatin] | -4.73
4 | CCCCC(F)(F)[C@@]1(O)CC[C@H]2[C@@H](CC(=O)[C@@H]2CCCCCCC(=O)O)O1 [Lubiprostone] | -4.78
5 | Cn1cc(/C=C/C(=O)c2cccc(F)c2)cc1/C=C/C(=O)NO [MC-1568] | -4.88
6 | O=C(O)CCC1CCC(c2cc(F)ccc2F)([S+](=O)([O-])c2ccc(Cl)cc2)CC1 (stereo unspecified) [MK-0752] | -4.98
7 | C=CCn1c(=O)c2cnc(Nc3ccc(N4CCN(C)CC4)cc3)nc2n1-c1cccc(C(C)(C)O)n1 [MK-1775] | -6.43
8 | O=C(O)Cn1nnc(-c2cc(N3CCC(Oc4cc(F)ccc4Br)CC3)no2)n1 [MK-8245] | -5.48
9 | N[S+](=O)([O-])OC[C@@H]1C[C@@H](n2ccc3c(N[C@H]4CCc5ccccc54)ncnc32)C[C@@H]1O [MLN-4924] | -5.48
10 | OC(=O)C1=CC=C(NC2=NC3=C(C\N=C(/C4=CC(=CC=C34)Cl)C5=C(F)C=CC=C5F)C=N2)C=C1 [MLN-8054] | -4.78
11 | Cn1cc(-c2ccncc2)c(-c2ccc(OCc3ccc4ccccc4n3)cc2)n1 [MP-10] | -5.13
12 | Cc1ccc(NC(=O)c2ccc(CN3CCN(C)CC3)cc2)cc1Nc1nc(-c2cccnc2)cs1 [Masitinib] | -4.93
13 | C[C@H](Cc1ccc(O)c(O)c1)[C@@H](C)Cc1ccc(O)c(O)c1 [Masoprocol] | -4.83
14 | COC(=O)Nc1nc2cc(C(=O)c3ccccc3)ccc2[nH]1 [Mebendazole] | -5.48
15 | COc1cccc(OC)c1-c1cc(C(=O)NC2(C(=O)O)C3CC4CC(C3)CC2C4)nn1-c1ccnc2cc(Cl)ccc12 (stereo unspecified) [Meclinertant] | -4.68
16 | Cc1cccc(CN2CCN(C(c3ccccc3)c3ccc(Cl)cc3)CC2)c1 (stereo unspecified) [Meclizine hydrochloride] | -4.68
17 | CC(=O)O[C@@]1(CC[C@H]2[C@@H]3\C=C(C)/C4=C/C(=O)CC[C@]4(C)[C@H]3CC[C@]12C)C(C)=O [Megestrol acetate] | -5.23
18 | CC(C)(C)C1=NC2=C([NH]1)C3=CC=C(F)C=C3C4=C2\C=C/NC4=O [Merck 5] | -5.33
19 | CN(C)[C@H]\1[C@@H]2[C@@H](O)[C@@H]\3C(=C)C4=C(C(=CC=C4)O)C(=O)C3=C(\O)[C@@]2(O)C(=O)\C(=C1O)C(N)=O [Methacycline hydrochloride] | -4.73
20 | C[C@]12CCC(=O)C=C1CC[C@@H]1[C@@H]2CC[C@@]2(C)[C@H]1CC[C@]2(C)O [Methyltestosterone] | -4.42
21 | C\C1=C(\C=C(\C#N)C(=O)N1)C2=CC=NC=C2 [Milrinone] | -4.73
22 | CN(c1nccc(=O)[nH]1)C1CCN(c2nc3ccccc3n2Cc2ccc(F)cc2)CC1 [Mizolastine] | -4.53
23 | Nc1ccccc1NC(=O)c1ccc(CNc2nccc(-c3cccnc3)n2)cc1 [Mocetinostat] | -5.93
24 | O=C(CCCN1CCN(c2ccc(F)cc2)CC1)NC1c2ccccc2CSc2ccccc21 (stereo unspecified) [Monatepil] | -5.23
25 | N=C(N)NC(=N)N1CCOCC1 [Moroxydine] | -4.78
26 | Cc1c(C(=O)Nc2ccc(N3C[C@@H](C)O[C@@H](C)C3)nc2)cccc1-c1ccc(OC(F)(F)F)cc1 [NVP-LDE-225] | -4.83
